According to US8624035B2, “Functionalized cyanine having a silane linker arm, a method of preparing thereof and uses thereof” (Universita' Degli Studi di Torino, priority 2008, dated 2014):

Experiment: Photodegradation over time under excitation with laser light at 532 nm
Assay type: physicochemical
Settings: after 350 minutes, FIG. 3
Description: The emission of nanoparticles is 15-folds higher than the emission of the solution. Moreover, the photodegradation of fluorescent nanoparticles over time was compared to the photodegradation of the cyanine in solution. […] It observed that the cyanine immobilized within the nanoparticle undergoes a 5% photodegradation after 350 minutes, whilst the cyanine dye in solution undergoes a 45% photodegradation within the same time.

CO[Si](CCCN1/C(=C/C=C/C2=[N+](CCC[Si](OC)(OC)OC)c3ccc(S(=O)(=O)[O-])cc3C2(C)C)C(C)(C)c2cc(S(=O)(=O)[O-])ccc21)(OC)OC.[K+] [Compound 1, 1-propyltrimethoxysilane-1′-propyltrimethoxysilane-3,3,3,3′-tetramethyl-5,5′-disulfonate-indomonocarbocyanine potassium salt]
photodegradation (percentage of emission compared to time zero): 45%
